Measured values as given in PubChem BioAssay AID1259407 (Chemical Carcinogenesis Research Information System (CCRIS), 2018).
Active and inactive are the calls of the source. The rule behind the calls is not given here.

Test system: CCRIS mutagenicity, Ames/micronucleus/aberration tests
Test: CCRIS mutagenicity studies
[1] = Test System: AMES SALMONELLA TYPHIMURIUM, Strain/Indicator: TA100, Metabolic Activation: NONE, Method: PREINCUBATION

## O=C1[C@H]2CC=CC[C@H]2C(=O)N1SC(Cl)(Cl)Cl
Test System: AMES SALMONELLA TYPHIMURIUM, Strain/Indicator: G46, Metabolic Activation: MOUSE, LIVER, S-9, PHENOBARBITAL, Method: STANDARD PLATE
  mutagenic call: active; positive
Test System: AMES SALMONELLA TYPHIMURIUM, Strain/Indicator: TA97A, Metabolic Activation: NONE, Method: STANDARD PLATE
  mutagenic call: active; positive
Test System: AMES SALMONELLA TYPHIMURIUM, Strain/Indicator: TA97A, Metabolic Activation: RAT, LIVER, S-9, AROCLOR 1254, Method: STANDARD PLATE
  mutagenic call: inactive; negative
Test System: AMES SALMONELLA TYPHIMURIUM, Strain/Indicator: TA98, Metabolic Activation: NONE
  mutagenic call: active; positive
Test System: AMES SALMONELLA TYPHIMURIUM, Strain/Indicator: TA98, Metabolic Activation: RAT, LIVER, S-9, AROCLOR 1254
  mutagenic call: active; positive
Test System: AMES SALMONELLA TYPHIMURIUM, Strain/Indicator: TA98, Metabolic Activation: RAT, LIVER, S-9, AROCLOR 1254, Method: STANDARD PLATE
  mutagenic call: active; positive
Test System: AMES SALMONELLA TYPHIMURIUM, Strain/Indicator: TA100, Metabolic Activation: NONE
  mutagenic call: active; positive
[1]
  mutagenic call: active; positive
Test System: AMES SALMONELLA TYPHIMURIUM, Strain/Indicator: TA100, Metabolic Activation: RAT, LIVER, S-9, AROCLOR 1254
  mutagenic call: active; positive
Test System: AMES SALMONELLA TYPHIMURIUM, Strain/Indicator: TA100, Metabolic Activation: RAT, LIVER, S-9, Method: STANDARD PLATE
  mutagenic call: active; positive
Test System: AMES SALMONELLA TYPHIMURIUM, Strain/Indicator: TA100, Metabolic Activation: S-9 MIX, Method: STANDARD PLATE
  mutagenic call: active; positive
Test System: AMES SALMONELLA TYPHIMURIUM, Strain/Indicator: TA102, Metabolic Activation: NONE
  mutagenic call: active; positive
Test System: AMES SALMONELLA TYPHIMURIUM, Strain/Indicator: TA102, Metabolic Activation: RAT, LIVER, S-9, AROCLOR 1254
  mutagenic call: active; positive
Test System: AMES SALMONELLA TYPHIMURIUM, Strain/Indicator: TA102, Metabolic Activation: RAT, LIVER, S-9, AROCLOR 1254, Method: STANDARD PLATE
  mutagenic call: inactive; negative
Test System: AMES SALMONELLA TYPHIMURIUM, Strain/Indicator: TA102, Metabolic Activation: RAT, LIVER, S-9, PHENOBARBITAL, Method: STANDARD PLATE
  mutagenic call: inactive; negative
Test System: AMES SALMONELLA TYPHIMURIUM, Strain/Indicator: TA104, Metabolic Activation: RAT, LIVER, S-9, AROCLOR 1254, Method: STANDARD PLATE
  mutagenic call: inactive; negative
Test System: AMES SALMONELLA TYPHIMURIUM, Strain/Indicator: TA104, Metabolic Activation: RAT, LIVER, S-9, PHENOBARBITAL, Method: STANDARD PLATE
  mutagenic call: active; positive
Test System: AMES SALMONELLA TYPHIMURIUM, Strain/Indicator: TA1535, Metabolic Activation: MOUSE, LIVER, S-9, PHENOBARBITAL, Method: STANDARD PLATE
  mutagenic call: active; positive
Test System: AMES SALMONELLA TYPHIMURIUM, Strain/Indicator: TA1535, Metabolic Activation: NONE
  mutagenic call: active; positive
Test System: AMES SALMONELLA TYPHIMURIUM, Strain/Indicator: TA1535, Metabolic Activation: NONE, Method: STANDARD PLATE
  mutagenic call: active; positive
Test System: AMES SALMONELLA TYPHIMURIUM, Strain/Indicator: TA1535, Metabolic Activation: RAT, LIVER, S-9, AROCLOR 1254
  mutagenic call: active; positive
Test System: AMES SALMONELLA TYPHIMURIUM, Strain/Indicator: TA1535, Metabolic Activation: RAT, LIVER, S-9, PHENOBARBITAL, Method: STANDARD PLATE
  mutagenic call: active; positive
Test System: AMES SALMONELLA TYPHIMURIUM, Strain/Indicator: TA1537, Metabolic Activation: NONE
  mutagenic call: active; positive
Test System: AMES SALMONELLA TYPHIMURIUM, Strain/Indicator: TA1537, Metabolic Activation: NONE, Method: STANDARD PLATE
  mutagenic call: active; positive
Test System: AMES SALMONELLA TYPHIMURIUM, Strain/Indicator: TA1537, Metabolic Activation: RAT, LIVER, S-9, AROCLOR 1254
  mutagenic call: active; positive
Test System: AMES SALMONELLA TYPHIMURIUM, Strain/Indicator: TA1537, Metabolic Activation: RAT, LIVER, S-9, PHENOBARBITAL, Method: STANDARD PLATE
  mutagenic call: active; positive
Test System: AMES SALMONELLA TYPHIMURIUM, Strain/Indicator: TA1950, Metabolic Activation: NONE, Method: SPOT
  mutagenic call: active; positive
Test System: Ames Salmonella typhimurium, Strain/Indicator: TA100, Metabolic Activation: None, Method: Preincubation
  mutagenic call: active; positive
Test System: Ames Salmonella typhimurium, Strain/Indicator: TA1975P, Metabolic Activation: None, Method: Preincubation
  mutagenic call: active; positive (at higher doses)
Test System: CHINESE HAMSTER OVARY, Strain/Indicator: CHO-K1-BH4 (HGPRT), Metabolic Activation: RAT, LIVER, S-9, AROCLOR, Method: SUSPENSION/PLATE
  mutagenic call: active; positive
Test System: CHINESE HAMSTER V-79, Strain/Indicator: V-79/8-AZAGUANINE, Metabolic Activation: NONE, Method: STANDARD PLATE
  mutagenic call: active; positive
Test System: CHINESE HAMSTER V-79, Strain/Indicator: V-79/OUABAIN, Metabolic Activation: NONE, Method: STANDARD PLATE
  mutagenic call: active; positive
Test System: E. COLI, Strain/Indicator: WP2, Metabolic Activation: NONE, Method: STANDARD PLATE
  mutagenic call: active; positive
Test System: E. COLI, Strain/Indicator: WP2, Metabolic Activation: RAT, LIVER, S-9, Method: STANDARD PLATE
  mutagenic call: active; positive
Test System: E. COLI, Strain/Indicator: WP2 UVRA, Metabolic Activation: NONE, Method: STANDARD PLATE
  mutagenic call: active; positive
Test System: E. COLI, Strain/Indicator: WP2 UVRA, Metabolic Activation: RAT, LIVER, S-9, AROCLOR 1254, Method: STANDARD PLATE
  mutagenic call: active; positive

## O[C@H]1C=Cc2c(ccc3cccnc23)[C@@H]1O
Test System: AMES SALMONELLA TYPHIMURIUM, Strain/Indicator: TA100, Metabolic Activation: RAT, LIVER, S-9, AROCLOR 1254, Method: STANDARD PLATE
  mutagenic call: active; positive

## CC#N
End Point: IN VITRO CHROMOSOMAL ABERRATIONS, Test System: CHINESE HAMSTER OVARY CELLS, Metabolic Activation: NONE
  mutagenic call: inactive; negative
End Point: IN VITRO CHROMOSOMAL ABERRATIONS, Test System: CHINESE HAMSTER OVARY CELLS, Metabolic Activation: RAT, LIVER, S-9, AROCLOR 1254
  mutagenic call: active; positive; statistically significant increase, but not dose-related
Test System: AMES SALMONELLA TYPHIMURIUM, Strain/Indicator: TA98, Metabolic Activation: HAMSTER, LIVER, S-9, AROCLOR 1254 (10 OR 30%), Method: PREINCUBATION
  mutagenic call: inactive; negative
Test System: AMES SALMONELLA TYPHIMURIUM, Strain/Indicator: TA98, Metabolic Activation: NONE, Method: PREINCUBATION
  mutagenic call: inactive; negative
Test System: AMES SALMONELLA TYPHIMURIUM, Strain/Indicator: TA98, Metabolic Activation: RAT, LIVER, S-9, ACETONITRILE (AUTOINDUCTION), Method: PREINCUBATION
  mutagenic call: inactive; negative
Test System: AMES SALMONELLA TYPHIMURIUM, Strain/Indicator: TA98, Metabolic Activation: RAT, LIVER, S-9, AROCLOR 1254 (10 OR 30%), Method: PREINCUBATION
  mutagenic call: inactive; negative
Test System: AMES SALMONELLA TYPHIMURIUM, Strain/Indicator: TA98, Metabolic Activation: RAT, LIVER, S-9, PHENOBARBITONE, Method: PREINCUBATION
  mutagenic call: inactive; negative
Test System: AMES SALMONELLA TYPHIMURIUM, Strain/Indicator: TA100, Metabolic Activation: HAMSTER, LIVER, S-9, AROCLOR 1254 (10 OR 30%), Method: PREINCUBATION
  mutagenic call: inactive; negative
[1]
  mutagenic call: inactive; negative
Test System: AMES SALMONELLA TYPHIMURIUM, Strain/Indicator: TA100, Metabolic Activation: RAT, LIVER, S-9, ACETONITRILE (AUTOINDUCTION), Method: PREINCUBATION
  mutagenic call: inactive; negative
Test System: AMES SALMONELLA TYPHIMURIUM, Strain/Indicator: TA100, Metabolic Activation: RAT, LIVER, S-9, AROCLOR 1254 (10 OR 30%), Method: PREINCUBATION
  mutagenic call: inactive; negative
Test System: AMES SALMONELLA TYPHIMURIUM, Strain/Indicator: TA100, Metabolic Activation: RAT, LIVER, S-9, PHENOBARBITONE, Method: PREINCUBATION
  mutagenic call: inactive; negative
Test System: AMES SALMONELLA TYPHIMURIUM, Strain/Indicator: TA1535, Metabolic Activation: HAMSTER, LIVER, S-9, AROCLOR 1254 (10 OR 30%), Method: PREINCUBATION
  mutagenic call: inactive; negative
Test System: AMES SALMONELLA TYPHIMURIUM, Strain/Indicator: TA1535, Metabolic Activation: NONE, Method: PREINCUBATION
  mutagenic call: inactive; negative
Test System: AMES SALMONELLA TYPHIMURIUM, Strain/Indicator: TA1535, Metabolic Activation: RAT, LIVER, S-9, AROCLOR 1254 (10 OR 30%), Method: PREINCUBATION
  mutagenic call: inactive; negative
Test System: AMES SALMONELLA TYPHIMURIUM, Strain/Indicator: TA1537, Metabolic Activation: HAMSTER, S-9, AROCLOR 1254 (10 OR 30%), Method: PREINCUBATION
  mutagenic call: inactive; negative
Test System: AMES SALMONELLA TYPHIMURIUM, Strain/Indicator: TA1537, Metabolic Activation: NONE, Method: PREINCUBATION
  mutagenic call: inactive; negative
Test System: AMES SALMONELLA TYPHIMURIUM, Strain/Indicator: TA1537, Metabolic Activation: RAT, LIVER, S-9, AROCLOR 1254 (10 OR 30%), Method: PREINCUBATION
  mutagenic call: inactive; negative
